In the experiment the test system is recombinant guanylate cyclase reporter cell line. The experiment is described as follows: Action on recombinant guanylate cyclase reporter cell line (MEC). It is filed as cell-based. The conditions noted are these: in some cases mean values obtained from individual determinations. An outline of the steps: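 Cell-based reporter assay with recombinant guanylate cyclase expressed in a reporter cell line, per a published method. Activity reported as minimal effective concentration (MEC), in some cases as the mean of individual determinations.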

Molecules are shown by their SMILES. Structures can show the parent of a compound that is named as a salt.

One may read the minimal effective concentration as the smallest amount tested that counted as effective. With `Cc1nc2c(OCc3c(F)cccc3F)cccn2c1C(=O)N[C@@H](CO)C(C)(C)C` [Example 35, 8-[(2,6-difluorobenzyl)oxy]-N-[(2R)-1-hydroxy-3,3-dimethylbutan-2-yl]-2-methylimidazo[1,2-a]-pyridine-3-carboxamide], the minimal effective concentration is 0.3 µM. As to `Cc1nc2c(OCc3c(F)cccc3F)cccn2c1C(=O)N[C@@H]1CCC[C@H]1O` [Example 36, 8-[(2,6-difluorobenzyl)oxy]-N-[(1R,2R)-2-hydroxycyclopentyl]-2-methylimidazo[1,2-a]-pyridine-3-carboxamide], the minimal effective concentration was determined as 0.1 µM. The result for `Cc1nc2c(OCc3c(F)cccc3F)cccn2c1C(=O)N[C@@H]1CCC[C@@H]1O` [Example 37, 8-[(2,6-difluorobenzyl)oxy]-N-[(1R,2S)-2-hydroxycyclopentyl]-2-methylimidazo[1,2-a]-pyridine-3-carboxamide] reads 0.3 µM; that for `Cc1nc2c(OCc3c(F)cccc3F)cccn2c1C(=O)N[C@@H](CO)Cc1ccccc1` [Example 38, 8-[(2,6-difluorobenzyl)oxy]-N-[(2R)-1-hydroxy-3-phenylpropan-2-yl]-2-methylimidazo[1,2-a]-pyridine-3-carboxamide], 0.3 µM. For `Cc1nc2c(OCc3c(F)cccc3F)cccn2c1C(=O)N[C@@H](CO)CC(C)C` [Example 39, 8-[(2,6-Difluorobenzyl)oxy]-N-[(2R)-1-hydroxy-4-methylpentan-2-yl]-2-methylimidazo[1,2-a]-pyridine-3-carboxamide], the minimal effective concentration amounted to 0.03 µM. `Cc1nc2c(OCc3c(F)cccc3F)cccn2c1C(=O)N[C@H]1c2ccccc2C[C@H]1O` [Example 40, 8-[(2,6-difluorobenzyl)oxy]-N-[(1S,2R)-2-hydroxy-2,3-dihydro-1H-inden-1-yl]-2-methylimidazo[1,2-a]pyridine-3-carboxamide]: the minimal effective concentration came out at 0.1 µM. The result for `Cc1nc2c(OCc3c(F)cccc3F)cccn2c1C(=O)NCC(C)(C)CO` [Example 41, 8-[(2,6-difluorobenzyl)oxy]-N-(3-hydroxy-2,2-dimethylpropyl)-2-methylimidazo[1,2-a]-pyridine-3-carboxamide] reads 3 µM; that for `Cc1nc2c(OCc3c(F)cccc3F)cccn2c1C(=O)N[C@H]1CC[C@H](O)CC1` [Example 42, (rac)-8-[(2,6-difluorobenzyl)oxy]-N-(trans-4-hydroxycyclohexyl)-2-methylimidazo[1,2-a]-pyridine-3-carboxamide], 1 µM. The figure for `CC[C@H](CO)NC(=O)c1c(C)nc2c(OCc3c(F)cccc3F)cccn12` [Example 43, 8-[(2,6-Difluorobenzyl)oxy]-N-[(2R)-1-hydroxybutan-2-yl]-2-methylimidazo[1,2-a]pyridine-3-carboxamide] is 0.16 µM. Consider `CC[C@H](CO)NC(=O)c1c(C)nc2c(OCc3cccc(F)c3F)cccn12` [Example 44, 8-[(2,3-difluorobenzyl)oxy]-N-[(2R)-1-hydroxybutan-2-yl]-2-methylimidazo[1,2-a]-pyridine-3-carboxamide], for which the minimal effective concentration was 0.3 µM.

Consider `CC[C@H](CO)NC(=O)c1c(C)nc2c(OCc3cccc(Cl)c3Cl)cccn12` [Example 45, 8-[(2,3-dichlorobenzyl)oxy]-N-[(2R)-1-hydroxybutan-2-yl]-2-methylimidazo[1,2-a]-pyridine-3-carboxamide], for which the minimal effective concentration turned out to be 0.65 µM. The figure for `Cc1nc2c(OCc3ccccc3)cccn2c1C(=O)N[C@@H](C)CO` [Example 46, 8-(Benzyloxy)-N-[(2S)-1-hydroxypropan-2-yl]-2-methylimidazo[1,2-a]pyridine-3-carboxamide] is 3 µM; for `Cc1nc2c(OCc3cccc(Cl)c3Cl)cccn2c1C(=O)NCCC1(O)CCCC1` [Example 47, 8-[(2,3-dichlorobenzyl)oxy]-N-[2-(1-hydroxycyclopentyl)ethyl]-2-methylimidazo[1,2-a]-pyridine-3-carboxamide] it is 0.3 µM. Consider `Cc1nc2c(OCc3ccccc3)cccn2c1C(=O)NCCC1(O)CCCC1` [Example 48, 8-(benzyloxy)-N-[2-(1-hydroxycyclopentyl)ethyl]-2-methylimidazo[1,2-a]pyridine-3-carboxamide], for which the minimal effective concentration was 1 µM. As for `Cc1nc2c(OCc3cccc(Cl)c3Cl)cccn2c1C(=O)NC(CO)CO` [Example 49, 8-[(2,3-dichlorobenzyl)oxy]-N-(1,3-dihydroxypropan-2-yl)-2-methylimidazo[1,2-a]-pyridine-3-carboxamide], the minimal effective concentration is 2 µM. The result for `Cc1nc2c(OCc3ccccc3Cl)cccn2c1C(=O)NC(CO)CO` [Example 50, 8-[(2-chlorobenzyl)oxy]-N-(1,3-dihydroxypropan-2-yl)-2-methylimidazo[1,2-a]pyridine-3-carboxamide] reads 6.5 µM; that for `Cc1nc2c(OCc3ccccc3F)cccn2c1C(=O)NC(CO)CO` [Example 51, N-(1,3-dihydroxypropan-2-yl)-8-[(2-fluorobenzyl)oxy]-2-methylimidazo[1,2-a]pyridine-3-carboxamide], 5.5 µM; that for `Cc1cccc(COc2cccn3c(C(=O)NC(CO)CO)c(C)nc23)c1Cl` [Example 52, 8-[(2-chloro-3-methylbenzyl)oxy]-N-(1,3-dihydroxypropan-2-yl)-2-methylimidazo[1,2-a]-pyridine-3-carboxamide], 10 µM. In the case of `Cc1nc2c(OCc3c(Cl)cccc3Cl)cccn2c1C(=O)NC(CO)CO` [Example 53, 8-[(2,6-dichlorobenzyl)oxy]-N-(1,3-dihydroxypropan-2-yl)-2-methylimidazo[1,2-a]-pyridine-3-carboxamide], the minimal effective concentration worked out at 10 µM. As to `Cc1nc2c(OCc3ccccc3Br)cccn2c1C(=O)NC(CO)CO` [Example 54, 8-[(2-bromobenzyl)oxy]-N-(1,3-dihydroxypropan-2-yl)-2-methylimidazo[1,2-a]pyridine-3-carboxamide], the minimal effective concentration was found to be 10 µM. Consider `CCc1nc2c(OCC3CCCCC3)cccn2c1C(=O)N[C@H](C)CO` [Example 55, 8-(Cyclohexylmethoxy)-2-ethyl-N-[(2R)-1-hydroxypropan-2-yl]imidazo[1,2-a]pyridine-3-carboxamide formic acid salt], for which the minimal effective concentration turned out to be 0.1 µM.

Turning to `C[C@@H](CO)NC(=O)c1c(C(F)(F)F)nc2c(OCC3CCCCC3)cccn12` [Example 56, 8-(cyclohexylmethoxy)-N-[(2S)-1-hydroxypropan-2-yl]-2-(trifluoromethyl)imidazo[1,2-a]pyridine-3-carboxamide], the minimal effective concentration stood at 1 µM. The result for `CCCc1nc2c(OCC3CCCCC3)cccn2c1C(=O)N[C@@H](C)CO` [Example 57, 8-(cyclohexylmethoxy)-N-[(2S)-1-hydroxypropan-2-yl]-2-propylimidazo[1,2-a]-pyridine-3-carboxamide] reads 1 µM; that for `CCc1nc2c(OCC3CCC3)cccn2c1C(=O)N[C@@H](C)CO` [Example 58, 8-(cyclobutylmethoxy)-2-ethyl-N-[(2S)-1-hydroxypropan-2-yl]imidazo[1,2-a]pyridine-3-carboxamide formic acid salt], 3 µM; that for `C[C@@H](CO)NC(=O)c1cnc2c(OCC3CCCCC3)cccn12` [Example 59, 8-(cyclohexylmethoxy)-N-[(2S)-1-hydroxypropan-2-yl]imidazo[1,2-a]pyridine-3-carboxamide], 3 µM. The figure for `CCCC[C@H](CO)NC(=O)c1c(C)nc2c(OCc3c(F)cccc3F)cc(CC)cn12` [Example 60, 8-[(2,6-difluorobenzyl)oxy]-6-ethyl-N-[(2R)-1-hydroxyhexan-2-yl]-2-methylimidazo[1,2-a]pyridine-3-carboxamide] is 0.1 µM. The result for `CCCC[C@H](CO)NC(=O)c1c(C)nc2c(OCc3c(F)cccc3F)cc(C3CC3)cn12` [Example 61, 6-cyclopropyl-8-[(2,6-difluorobenzyl)oxy]-N-[(2R)-1-hydroxyhexan-2-yl]-2-methylimidazo[1,2-a]pyridine-3-carboxamide] reads 1 µM; that for `CCCC[C@H](CO)NC(=O)c1cnc2c(OCc3c(F)cccc3F)cccn12` [Example 62, 8-[(2,6-difluorobenzyl)oxy]-N-[(2R)-1-hydroxyhexan-2-yl]imidazo[1,2-a]pyridine-3-carboxamide], 0.3 µM. `CCCC[C@H](CO)NC(=O)c1c(C)nc2c(OCc3c(F)cccc3F)cc(N3CCOCC3)cn12` [Example 63, 8-[(2,6-difluorobenzyl)oxy]-N-[(2R)-1-hydroxyhexan-2-yl]-2-methyl-6-(morpholin-4-yl)imidazo[1,2-a]pyridine-3-carboxamide]: the minimal effective concentration was 3 µM. As for `CCCC[C@H](CO)NC(=O)c1c(C)nc2c(OCc3c(F)cccc3F)cc(N3CCCC3)cn12` [Example 64, 8-[(2,6-difluorobenzyl)oxy]-N-[(2R)-1-hydroxyhexan-2-yl]-2-methyl-6-(pyrrolidin-1-yl)imidazo[1,2-a]pyridine-3-carboxamide], the minimal effective concentration was determined as 3 µM. For the molecule `CCCC[C@H](CO)NC(=O)c1c(C)nc2c(OCc3c(F)cccc3F)cc(Br)cn12` [Example 65, 6-bromo-8-[(2,6-difluorobenzyl)oxy]-N-[(2R)-1-hydroxyhexan-2-yl]-2-methylimidazo[1,2-a]pyridine-3-carboxamide], the minimal effective concentration was determined as 0.03 µM. As to `CCC[C@H](CO)NC(=O)c1c(C)nc2c(OCC3CCCCC3)cccn12` [Example 67, 8-(cyclohexylmethoxy)-N-[(2R)-1-hydroxypentan-2-yl]-2-methylimidazo[1,2-a]pyridine-3-carboxamide], the minimal effective concentration turned out to be 0.03 µM. The figure for `Cc1nc2c(OCC3CCCCC3)cccn2c1C(=O)NC[C@H](O)CO` [Example 68, 8-(cyclohexylmethoxy)-N-[(2S)-2,3-dihydroxypropyl]-2-methylimidazo[1,2-a]pyridine-3-carboxamide] is 0.03 µM.

Source of the values: patent US8778964B2, “Hydroxy-substituted imidazo[1,2-a]-pyridinecarboxamides and their use” (Bayer Pharma Aktiengesellschaft, priority 2012, dated 2014).
